In patent EP0571511B1, “NOVEL UREAS AND THIOUREAS, PREPARATION THEREOF AND APPLICATION IN THERAPY” (priority 1991, dated 1992) one finds IC50 data, which are given here for 1 compound.

Each structure is given as a SMILES string.

The assay has as its target acétylcholinestérase (Homo sapiens, UniProt P22303). The assay can be described thus: biochemical. The settings on record: Inhibition de l'activité de l'acétylcholinestérase; read-out: IC₅₀. From the text:
Les composés de l'invention ont été soumis à des essais pharmacologiques qui ont montré leur intérét en tant qu'inhibiteurs de l'acétylcholinestérase.

Chain of acétylcholinestérase (P22303 32-614, species assumed): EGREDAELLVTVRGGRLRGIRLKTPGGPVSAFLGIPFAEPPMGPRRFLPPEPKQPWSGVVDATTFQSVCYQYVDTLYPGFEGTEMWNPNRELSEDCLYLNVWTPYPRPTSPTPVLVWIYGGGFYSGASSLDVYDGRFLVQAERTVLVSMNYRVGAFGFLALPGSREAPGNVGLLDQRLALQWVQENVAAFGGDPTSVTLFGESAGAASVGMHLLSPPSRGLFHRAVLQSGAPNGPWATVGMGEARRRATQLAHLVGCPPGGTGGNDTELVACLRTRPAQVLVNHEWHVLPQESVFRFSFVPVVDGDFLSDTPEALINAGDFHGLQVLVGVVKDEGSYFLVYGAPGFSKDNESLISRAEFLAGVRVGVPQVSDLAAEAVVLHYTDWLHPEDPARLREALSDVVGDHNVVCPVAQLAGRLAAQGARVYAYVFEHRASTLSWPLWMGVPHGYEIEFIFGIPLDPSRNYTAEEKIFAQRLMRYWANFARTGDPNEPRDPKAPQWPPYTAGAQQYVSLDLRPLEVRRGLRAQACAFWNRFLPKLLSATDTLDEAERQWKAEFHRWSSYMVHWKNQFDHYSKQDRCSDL

As for `O=C(NC(=S)NCCC1CCN(Cc2ccccc2)CC1)c1ccc2c(c1)OCO2` [compound 12], the IC50 is 0.018 µM.
